Source: patent publication US20260234165A1, “MACROCYCLIC COMPOUNDS, PREPARATION METHOD THEREFOR, AND USE THEREOF” (GENFLEET THERAPEUTICS (SHANGHAI) INC., priority 2004, published 2026)
Where two headings read alike, the source gives them in different places.

Columns and labels:
[1] = Assay for stability in liver microsomes; format: in vitro ADME; settings: human liver microsomes
Procedure: This experiment was intended to investigate the metabolic stability of the test compounds in human liver microsomes. The materials used in the experiment included 10 mM solutions of the test compounds and the control sample, human liver microsomes, and reduced nicotinamide adenine dinucleotide phosphate (NADPH) powder. In the experiment, a 100 mM potassium phosphate buffer was used as the buffer system.
The liver microsome working solution was prepared by diluting the liver microsome stock solution to 0.75 mg/mL using the 100 mM potassium phosphate buffer. Then, 5 μL of the 10 mM stock solution of the test compound was taken, and 195 μL of methanol was added. The mixture was well mixed to prepare a working solution A with a concentration of 0.25 mM.
Subsequently, the working solution A was diluted to 1.5 μM using the liver microsome working solution to prepare a compound-liver microsome mixed solution. Additionally, NADPH powder was dissolved in a 100) mM potassium phosphate buffer to prepare a 6 mM NADPH solution. The compound-liver microsome mixed solution was dispensed into a 96-well plate at 30 μL/well, with labeled time points of 0 min, 30 min, and 60 min. For 0-min samples, 180 μL of acetonitrile containing 100 ng/mL tolbutamide and 15 μL of the NADPH solution were added directly. The 96-well plate and the NADPH solution were then preheated under a 37° C. water bath for 5 min. After the preheating, 15 μL of the NADPH solution was added to each of the 30-min and 60-min sample wells. The plate was gently shaken for mixing and then incubated under the 37° C. water bath for the corresponding time. After the incubation was completed. 180 μL of acetonitrile containing 100 ng/mL tolbutamide was added to each sample well. The plate was sealed with a sealing film, shaken for 10 min (800 rpm/min), and then centrifuged for 15 min (4000 rpm). After the centrifugation, 50 μL of the supernatant was taken and added to a 96-well plate containing 150 μL of deionized water, and then the plate was sealed and shaken for 10 min (800 rpm) for uniform mixing. Subsequently sample analysis was performed using liquid chromatography-tandem mass spectrometry (LC-MS/MS).
The elimination rate constant and clearance rate of the test compound in liver microsomes were calculated using the following formulas: Remaining rate (%)=(peak area ratio of the compound to internal standard at any time point/peak area ratio of the compound to internal standard at 0 min)×100%,^4. T1/2=0.693/ke, where ke is the elimination rate constant and T1/2 is the half-life. Liver microsome intrinsic clearance rate (CLint(mic))=0.693/(T1/2× microsome protein concentration (mg/mL)). Liver intrinsic clearance rate (CLint(liver))=CLint(mic)×microsome protein-to-liver weight ratio (mg/g)×liver-to-body weight ratio (g/kg). In the formulas, CLint(mic) is the liver microsome intrinsic clearance rate, CLint(liver) is the liver intrinsic clearance rate, and CL(liver) is the liver clearance rate. For humans, the microsome protein-to-liver weight ratio was 45 mg/g, and the liver-to-body weight ratio was 20.7 g/kg.

[2] = test system: NCI-H441 cells; assay: 3D cell proliferation assay (CellTiter Glo-3D), NCI-H441; format: cell-based, human; settings: medium with 2% FBS, read-out: H441 AP IC50
How it was run: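 Cells were seeded at 800 per well in RPMI-1640 containing 2% FBS and left overnight. Compounds in 3.16-fold dilution series were then added at 0.1% DMSO and incubated 5 days at 37 °C. Viability was read by CellTiter-Glo 3D luminescence and IC50 values fitted by four-parameter regression.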

[3] = Homo sapiens, NCI-H441, 3D cell proliferation (CellTiter Glo-3D)

Row | half-life at 1 µM ([1]; NADPH, 37° C., 0/30/60 min) | CLint scaled at 1 µM ([1]; liver intrinsic clearance rate) | IC50 [2, 3] | T1/2 ([1]; NADPH, 37° C., 0/30/60 min) | CLint(liver) ([1]; liver intrinsic clearance rate) | IC50 ([2]; 3D cell proliferation (CellTiter Glo-3D)) | SMILES
1 | 36 min | 44.5 mL/min/kg | 1.16 nM | – | – | – | CCn1c(-c2cc(C#CCN3CCS(=O)(=O)CC3)cnc2[C@H](C)OC)c2c3cc(ccc31)-c1csc(n1)C[C@H](Nc1nnc3cc(C)ccn13)C(=O)N1CCC[C@H](N1)C(=O)OCC(C)(C)C2 (atropisomer, axis not shown; (Ra)) [Compound Z911, (6^3S,4S,Z)—(Ra)-1^2-(5-(3-(1,1-dioxidothiomorpholino)prop-1-yn-1-yl)-2-((S)-1-methoxyethyl)pyridin-3-yl)-1^1-ethyl-10,10-dimethyl-4-((7-methyl-[1,2,4]triazolo[4,3-a]pyridin-3-yl)amino)-6^1,6^2,6^3,6^4,6^5,6^6-hexahydro-1^1H-8-oxa-2(4,2)-thiazola-1(5,3)-indola-6(1.3)-pyridazinacycloundecaphane-5,7-dione]
2 | – | – | – | 38.9 min | 41.2 mL/min/kg | 0.63 nM | CCn1c(-c2cc(C#CCN3CCCOCC3)cnc2C(C)C)c2c3cc(ccc31)-c1csc(n1)C[C@H](NC(=O)[C@H]1[C@H](C)[C@@H]1C)C(=O)N1CCC[C@H](N1)C(=O)OCC(C)(C)C2 (atropisomer, axis not shown; (Sa)) [Compound Z811-2, (1r,2R,3S)—N-((6^3S,4S,Z)—(Sa)-1-(5-(3-(1,4-oxazepan-4-yl)prop-1-yn-1-yl)-2-isopropylpyridin-3-yl)-1^1-ethyl-10,10-dimethyl-5,7-dioxo-6^1,6^2,6^3,6^4,6^5,6^6-hexahydro-1^1H-8-oxa-2(4,2)-thiazola-1(5,3)-indola-6(1,3)-pyridazinacycloundecaphane-4-yl)-2,3-dimethylcyclopropane-1-carboxamide]
3 | 48.2 min | 33.2 mL/min/kg | 2.14 nM | – | – | – | CCn1c(-c2cc(N3CCN(CCS(C)(=O)=O)CC3)cnc2[C@H](C)OC)c2c3cc(ccc31)-c1csc(n1)C[C@H](NC(=O)[C@H]1[C@H](C)[C@@H]1C)C(=O)N1CCC[C@H](N1)C(=O)OCC1(CC1)C2 (single isomer, unassigned) [Compound Z367]
4 | 64.2 min | 25 mL/min/kg | 3.62 nM | – | – | – | CCO[C@@H](C)c1ncc(N2CCN(CCS(C)(=O)=O)CC2)cc1-c1c2c3cc(ccc3n1CC)-c1csc(n1)C[C@H](NC(=O)[C@H]1[C@H](C)[C@@H]1C)C(=O)N1CCC[C@H](N1)C(=O)OCC1(CC1)C2 (single isomer, unassigned) [Compound Z378-1]
